Results as given in PubChem BioAssay AID256 (DTP/NCI, 2004).
Several values for one entry are separate records, joined by “and”; a condition that tells them apart may be missing. Identical values can stand only once. Inconclusive results and toxic doses are left out. Rule for the calls: active = survival T/C of 150% or more; inactive = T/C below 125% in these data.

Test system: CD2F1 mice, L1210 leukemia ip, survival T/C
Experiment: NCI In Vivo Anticancer Drug Screen. Data for tumor model L1210 Leukemia (intraperitoneal) in CD2F1 (CDF1) mice
Conditions: endpoint: mean survival time, higher = longer survival
In short: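 In this screen, transplantable tumors were grown in mice given either the compound or its vehicle. Results were expressed as the treated measurement relative to the control measurement.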

[1] = dose: 25.0 mg/kg/injection, schedule: Q01DX009 (ip), vehicle: saline with Tween-80
[2] = dose: 100.0 mg/kg/injection, schedule: Q01DX009 (ip), vehicle: saline with Tween-80
[3] = dose: 100.0 mg/kg/injection, schedule: Q01DX001 (ip), vehicle: saline with Tween-80
[4] = dose: 100.0 mg/kg/injection, schedule: Q04DX002 (ip), vehicle: saline with Tween-80
[5] = dose: 200.0 mg/kg/injection, schedule: Q01DX001 (ip), vehicle: saline with Tween-80
[6] = dose: 200.0 mg/kg/injection, schedule: Q04DX002 (ip), vehicle: saline with Tween-80
[7] = dose: 400.0 mg/kg/injection, schedule: Q01DX001 (ip), vehicle: saline with Tween-80
[8] = dose: 400.0 mg/kg/injection, schedule: Q04DX002 (ip), vehicle: saline with Tween-80
[9] = dose: 100.0 mg/kg/injection, schedule: Q04DX003 (ip), vehicle: saline with Tween-80
[10] = dose: 200.0 mg/kg/injection, schedule: Q04DX003 (ip), vehicle: saline with Tween-80
[11] = dose: 400.0 mg/kg/injection, schedule: Q04DX003 (ip), vehicle: saline with Tween-80
[12] = dose: 200.0 mg/kg/injection, schedule: Q01DX009 (ip), vehicle: saline with Tween-80
[13] = dose: 400.0 mg/kg/injection, schedule: Q01DX009 (ip), vehicle: saline with Tween-80
[14] = dose: 25.0 mg/kg/injection, schedule: Q04DX003 (ip), vehicle: saline with Tween-80
[15] = dose: 50.0 mg/kg/injection, schedule: Q04DX003 (ip), vehicle: saline with Tween-80
[16] = dose: 75.0 mg/kg/injection, schedule: Q01DX001 (ip), vehicle: saline
[17] = dose: 150.0 mg/kg/injection, schedule: Q01DX001 (ip), vehicle: saline
[18] = dose: 300.0 mg/kg/injection, schedule: Q01DX001 (ip), vehicle: saline

Measured: T/C

C/C=N\N=C(N)N
inactive: dose: 30.0 mg/kg/injection, schedule: Q01DX010 (ip), vehicle: saline 96 % of control | dose: 60.0 mg/kg/injection, schedule: Q01DX009 (ip), vehicle: saline 96 % of control | dose: 120.0 mg/kg/injection, schedule: Q01DX010 (ip), vehicle: saline 91 % of control | dose: 240.0 mg/kg/injection, schedule: Q01DX009 (ip), vehicle: saline 93 % of control | dose: 480.0 mg/kg/injection, schedule: Q01DX009 (ip), vehicle: saline 93 % of control

CC(C)C(O)C(C)N (centres undefined)
inactive: [1] 113 % of control | dose: 50.0 mg/kg/injection, schedule: Q01DX009 (ip), vehicle: saline with Tween-80 95 % of control | [2] 93 % of control

O=S1(=O)OC2(CCCCC2)c2ccccc21
inactive: [3] 95 % of control | [4] 96 % of control | [5] 95 % of control | [6] 90 % of control | [7] 100 % of control | [8] 93 % of control

S
inactive: dose: 100.0 mg/kg/injection, schedule: Q04DX003 (ip), vehicle: Klucel (hydroxypropylcellulose) (HPC) 95 % of control | dose: 200.0 mg/kg/injection, schedule: Q04DX003 (ip), vehicle: Klucel (hydroxypropylcellulose) (HPC) 101 % of control | dose: 400.0 mg/kg/injection, schedule: Q04DX003 (ip), vehicle: Klucel (hydroxypropylcellulose) (HPC) 93 % of control

CCOC(=O)CCC1(CCC(=O)OCC)OCCO1
inactive: [9] 93 % of control | dose: 100.0 mg/kg/injection, schedule: Q04DX003 (ip), vehicle: saline 100 % of control | [10] 98 % of control | dose: 200.0 mg/kg/injection, schedule: Q04DX003 (ip), vehicle: saline 96 % of control | [11] 98 % of control | dose: 400.0 mg/kg/injection, schedule: Q04DX003 (ip), vehicle: saline 100 % of control

O=C(NC(CO)C(O)c1ccc([N+](=O)[O-])cc1)C(Cl)Cl (centres undefined)
inactive: [2] 96 % of control | [12] 104 % of control | [13] 110 % of control

COC1(c2ccccc2)C(c2ccccc2)=CC(=O)/C1=C\c1ccccc1 (centres undefined)
inactive: [9] 98 % of control | [10] 91 % of control | [11] 86 % of control

CCCCCCCCCCCCCCCCN(C)C
inactive: [14] 94 % of control | [15] 95 % of control

O=[N+]([O-])c1cc(C(F)(F)F)ccc1F
inactive: [14] 110 % of control | [15] 98 % of control | [9] 105 % of control

C(#Cc1ccccc1)/C=C/C=C/c1ccccc1
inactive: dose: 25.0 mg/kg/injection, schedule: Q01DX001 (ip), vehicle: saline with Tween-80 95 % of control | dose: 50.0 mg/kg/injection, schedule: Q01DX001 (ip), vehicle: saline with Tween-80 87 % of control | [3] 87 % of control and 89 % of control

Nc1nc2ncc(CSc3ccc(C(=O)NC(CCC(=O)O)C(=O)O)cc3)nc2c(=O)[nH]1 (centres undefined)
inactive: dose: 1.0 mg/kg/injection, schedule: Q01DX009 (ip), vehicle: sodium bicarbonate 107 % of control | dose: 2.0 mg/kg/injection, schedule: Q01DX009 (ip), vehicle: saline with Tween-80 101 % of control | dose: 2.0 mg/kg/injection, schedule: Q01DX009 (ip), vehicle: sodium bicarbonate 111 % of control | dose: 4.0 mg/kg/injection, schedule: Q01DX009 (ip), vehicle: saline with Tween-80 101 % of control | dose: 4.0 mg/kg/injection, schedule: Q01DX009 (ip), vehicle: sodium bicarbonate 124 % of control | dose: 5.4 mg/kg/injection, schedule: Q01DX009 (ip), vehicle: sodium bicarbonate 90 % of control | dose: 8.0 mg/kg/injection, schedule: Q01DX009 (ip), vehicle: saline with Tween-80 104 % of control | dose: 8.0 mg/kg/injection, schedule: Q01DX009 (ip), vehicle: sodium bicarbonate 97 % of control | dose: 12.0 mg/kg/injection, schedule: Q01DX009 (ip), vehicle: sodium bicarbonate 95 % of control | dose: 16.0 mg/kg/injection, schedule: Q01DX009 (ip), vehicle: saline with Tween-80 97 % of control | dose: 16.0 mg/kg/injection, schedule: Q01DX009 (ip), vehicle: sodium bicarbonate 113 % of control | dose: 32.0 mg/kg/injection, schedule: Q01DX009 (ip), vehicle: saline with Tween-80 101 % of control

O=C(c1ccccc1)c1ccc([N+](=O)[O-])cc1
inactive: dose: 100.0 mg/kg/injection, schedule: Q04DX003 (ip), vehicle: saline sonified 92 % of control | dose: 200.0 mg/kg/injection, schedule: Q04DX003 (ip), vehicle: saline sonified 95 % of control | dose: 400.0 mg/kg/injection, schedule: Q04DX003 (ip), vehicle: saline sonified 100 % of control

CS/C(N)=N\S(=O)(=O)c1ccc(NC(C)=O)cc1
inactive: [2] 98 % of control | [12] 95 % of control | [13] 106 % of control

NC1=CC(=O)C(c2ccccc2)C1=O (centres undefined)
inactive: [3] 100 % of control | [5] 92 % of control | [7] 92 % of control

CCOC(=O)CSC(=S)NC1CCCCC1
inactive: [9] 101 % of control | [10] 98 % of control | [11] 95 % of control

O=C(Nc1ccc2c3c(ccc(C(=O)O)c13)CC2)c1ccccc1
inactive: [9] 97 % of control | [10] 95 % of control | [11] 104 % of control

O=c1c2ccccc2c2nccc3c4ccccc4n1c32
inactive: [2] 103 % of control | [9] 102 % of control | [12] 105 % of control | [10] 107 % of control | [13] 100 % of control | [11] 107 % of control

O=S(=O)(O)C(I)S(=O)(=O)O
inactive: dose: 100.0 mg/kg/injection, schedule: Q01DX001 (ip), vehicle: saline 97 % of control | dose: 200.0 mg/kg/injection, schedule: Q01DX001 (ip), vehicle: saline 102 % of control | dose: 400.0 mg/kg/injection, schedule: Q01DX001 (ip), vehicle: saline 114 % of control

CNc1c(Cl)c(Cl)c(Br)c(Cl)c1Cl
inactive: [9] 100 % of control | [10] 95 % of control | [11] 101 % of control

CCOc1ccccc1C1N(C)CCCN1C
inactive: dose: 6.25 mg/kg/injection, schedule: Q01DX009 (ip), vehicle: saline with Tween-80 105 % of control | dose: 12.5 mg/kg/injection, schedule: Q01DX009 (ip), vehicle: saline with Tween-80 100 % of control | [1] 110 % of control

Cc1[nH]c2cc([N+](=O)[O-])ccc2c1[N+](=O)[O-]
inactive: [16] 97 % of control and 108 % of control | [17] 103 % of control and 100 % of control | [18] 93 % of control

CC1(C)OC2C(CN=[N+]=[N-])OC(n3cnc4c(=O)[nH]c(N)nc43)C2O1 (centres undefined)
inactive: dose: 100.0 mg/kg/injection, schedule: Q01DX001 (ip), vehicle: Klucel (hydroxypropylcellulose) (HPC) 109 % of control | dose: 200.0 mg/kg/injection, schedule: Q01DX001 (ip), vehicle: Klucel (hydroxypropylcellulose) (HPC) 97 % of control | dose: 400.0 mg/kg/injection, schedule: Q01DX001 (ip), vehicle: Klucel (hydroxypropylcellulose) (HPC) 97 % of control

NNC(=O)c1cccc(C(=O)NN)c1
inactive: [2] 96 % of control | [9] 93 % of control | [12] 93 % of control | [10] 95 % of control | [13] 98 % of control | [11] 92 % of control

Clc1nc(Oc2ccccc2)nc(-c2cn(-c3ccccc3)c3ccccc23)n1
inactive: [3] 98 % of control | [2] 95 % of control | [9] 102 % of control | [5] 102 % of control | [12] 101 % of control | [10] 98 % of control | [7] 102 % of control | [13] 97 % of control | [11] 101 % of control

Clc1ccc(C(=C(c2ccc(Cl)cc2)c2ccc(Cl)cc2)c2ccc(Cl)cc2)cc1
inactive: [16] 100 % of control | [17] 95 % of control | [18] 93 % of control

CCOC(=O)CCCCCCCCC(=O)Nc1ccc(-n2[nH]c(=O)cc2C)cc1
inactive: [9] 92 % of control | [10] 92 % of control | [11] 87 % of control

CC(C)C1CCC(C)C(C(CC(=O)c2ccccc2)c2ccccc2)C1=O (centres undefined)
inactive: [4] 97 % of control | [6] 90 % of control | [8] 101 % of control
